One experiment has as its target T1, PPARγ (Homo sapiens, UniProt P37231).
T1 construct: endogenous in cells; host or cells: MCF-7 (nuclear extracts)
T1 sequence (P37231 1-505): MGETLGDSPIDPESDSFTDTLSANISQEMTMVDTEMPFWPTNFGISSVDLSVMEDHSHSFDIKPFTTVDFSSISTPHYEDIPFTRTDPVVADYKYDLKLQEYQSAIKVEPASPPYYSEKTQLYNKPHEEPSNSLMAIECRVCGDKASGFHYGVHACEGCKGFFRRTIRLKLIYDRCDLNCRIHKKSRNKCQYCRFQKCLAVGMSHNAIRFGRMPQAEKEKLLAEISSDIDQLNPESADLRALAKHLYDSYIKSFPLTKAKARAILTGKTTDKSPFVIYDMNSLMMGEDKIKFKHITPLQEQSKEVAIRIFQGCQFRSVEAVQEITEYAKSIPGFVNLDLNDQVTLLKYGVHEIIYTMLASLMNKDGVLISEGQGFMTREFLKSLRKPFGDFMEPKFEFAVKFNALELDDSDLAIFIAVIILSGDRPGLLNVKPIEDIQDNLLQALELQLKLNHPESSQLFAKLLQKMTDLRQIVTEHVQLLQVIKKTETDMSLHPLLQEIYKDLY
Description: Analysis of PPARγ activation (PPARγ transcription factor ELISA, MCF-7 nuclear extracts). Type of experiment: cell-based. Conditions: 10 μM, 48 h, MCF-7 cells. The method, then:
Analysis of PPARγ activation. The analysis was carried out by using a PPARγ transcription factor ELISA kit (Active Motif, Carlsbad, Calif.), in which an oligonucleotide containing the peroxisome proliferator response element (PPRE) was immobilized onto a 96-well plate. PPARs contained in nuclear extracts bind specifically to this oligonucleotide and are detected through an antibody directed against PPARγ. In brief, MCF-7 cells were cultured in RPMI 1640 medium supplemented with 10% FBS, and treated with DMSO vehicle or individual test agents, 10 μM each, for 48 h. Cells were collected, and nuclear extracts were prepared with a Nuclear Extract kit (Active Motif, Carlsbad, Calif.). Nuclear extracts of the same protein concentration from individual treatments were subject to the PPARγ transcription factor ELISA according to the manufacturer's instruction.
For orientation: In an ELISA, binding on a coated surface is turned into a signal by an enzyme label.

Another experiment deals with MCF-7 cells. Description: MTT cell viability assay. Type of experiment: cell-based. Conditions: Homo sapiens. As for the experimental part:
Cell viability analysis. The effect of individual test agents on cell viability was assessed by using the MTT [3-(4,5-dimethylthiazol-2-yl)-2,5-diphenyl-2H-tetrazolium bromide] assay in six replicates. Cells were seeded and incubated in 96-well, flat-bottomed plates in DMEM-F12 media with 10% FBS for 24 h, and were exposed to various concentrations of test agents dissolved in DMSO (final DMSO concentration, 0.1%) in 5% FBS-supplemented DMEM-F12 medium. Controls received DMSO vehicle at a concentration equal to that of drug-treated cells. The medium was removed, replaced by 200 μl of 0.5 mg/ml of MTT in 10% FBS-containing RPMI-1640 medium, and cells were incubated in the CO2 incubator at 37° C. for 2 h. Supernatants were removed from the wells, and the reduced MTT dye was solubilized in 200 μl/well DMSO. Absorbance at 570 nm was determined on a plate reader.
(In general: Tetrazolium assays rely on reduction of a dye to a coloured formazan, in cell work by metabolically active cells.)

The test system of a further experiment is cyclin D1. The experiment is described as follows: Western blot analysis of cyclin D1 expression in MCF-7 cells. Type of experiment: cell-based, human. Conditions: for concentration at which cyclin D1 levels are reduced: FIG. 8B; for minimum concentration required for the complete ablation of cyclin D1: 24 h, 5% FBS. The method, then: (§1) Western Blot Analysis. MCF-7 or MDA-MB-231 cells were seeded in 10% FBS-containing DMEM-F-12 for 24 h and treated with various agents as indicated. After individual treatments for 24 h, both the incubation medium and adherent cells in T-25 or T-75 flasks were scraped and collected by centrifugation at 2,000×g for 10 min. The pellets were recovered, placed on ice, and triturated with 20 to 50 μl of a chilled lysis buffer (M-PER® Mammalian Protein Extraction Reagent, Pierce, Rockford, Ill.) to which was added 1% protease inhibitor cocktail (set III, EMD Biosciences, Inc. San Diego, Calif.). After a 30 min-incubation on ice, the mixture was centrifuge at 16,100×g for 3 min. Two μl of the suspension was taken for protein analysis using the Bradford assay kit (Bio-Rad, Hercules, Calif.). To the remaining solution was added the same volume of 2× SDS-PAGE sample loading buffer (100 mM Tris-HCl, pH 6.8, 4% SDS, 5% β-mercaptoethanol 20% glycerol, and 0.1% bromophenol blue). The mixture was boiled for 10 min. Equal amounts of proteins were loaded onto 10% SDS-PAGE gels. After electrophoresis, protein bands were transferred to nitrocellulose membranes in a semi-dry transfer cell. The transblotted membrane was blocking with TBST [Tris-buffered saline (TBS) containing 0.1% Tween 20] containing 5% nonfat milk for 90 min, and the membrane was incubated with the appropriate primary antibody in TBST-5% nonfat milk at 4° C. overnight. After washing three times with TBST for a total of 45 min, the transblotted membrane was incubated with goat anti-rabbit or anti-mouse IgG-horseradish peroxidase conjugates (diluted 1:1000) for 1 h at room temperature and washed four times with TBST for a total of 1 h. The immunoblots were visualized by enhanced chemiluminescence.
A general note: A western blot detects proteins with antibodies after separation by electrophoresis.

The next experiment concerns ERα. The experiment is described as follows: Western blot analysis of ERα expression in MCF-7 cells. Type of experiment: cell-based, human. Conditions: 24 h. The method, then: as §1, with “The transblotted membrane was blocking with TBST [Tris-buffered saline (TBS) containing 0.1% Tween 20] containing 5% nonfat milk for 90 min, and the membrane was incubated with the appropriate primary antibody in TBST-5% nonfat milk at 4° C. overnight. After washing three times with TBST for a total of 45 min, the transblotted membrane was incubated with goat anti-rabbit or anti-mouse IgG-horseradish peroxidase conjugates (diluted 1:1000) for 1 h at room temperature and washed four times with TBST for a total of 1 h. The immunoblots were visualized by enhanced chemiluminescence.” left out

The next experiment deals with GSK-3β. The experiment is described as follows: Western blot of GSK-3β phosphorylation in MCF-7 cells. It counts as cell-based, human. As to conditions: different doses. The method, then: as §1, with “The transblotted membrane was blocking with TBST [Tris-buffered saline (TBS) containing 0.1% Tween 20] containing 5% nonfat milk for 90 min, and the membrane was incubated with the appropriate primary antibody in TBST-5% nonfat milk at 4° C. overnight. After washing three times with TBST for a total of 45 min, the transblotted membrane was incubated with goat anti-rabbit or anti-mouse IgG-horseradish peroxidase conjugates (diluted 1:1000) for 1 h at room temperature and washed four times with TBST for a total of 1 h. The immunoblots were visualized by enhanced chemiluminescence.” left out

A further experiment concerns ubiquitinated cyclin D1. The experiment is described as follows: Coimmunoprecipitation/Western blot of cyclin D1 ubiquitination in MCF-7 cells. Type of experiment: cell-based, human. Conditions: 30 μM TG or 20 μM Δ2-TG, 20 h. The method, then: Coimmunoprecipitation/Western Blot. MCF-7 cells were cultured in 10% FBS-containing DMEM-F-12 in 75-mm plates for 24 h. Cell were treated with DMSO vehicle, 30 μM TG, or 20 μM Δ2-TG in 5% FBS-containing DMEM-F12 medium for another 20 hours. Cells were rinsed with PBS at room temperature, scraped off the flask, transferred into centrifuge tubes, and centrifuged at 2,000×g for 10 min to pellet the cells. […] These cell lysates were treated with 100 μl of protein A-agarose bead slurry, followed by brief centrifugation, to remove nonspecific binding proteins. Equal amounts of proteins from these lysates, as determined by the Bradford assay, were mixed with anti-cyclin D1 in an orbital shaker at 23° C. for 2 h, followed by 100 μl of protein A-agarose bead slurry at 4° C. for 12 h. The immunocomplex was collected by brief centrifugation, washed 4 times with 800 μl of ice-cold RIPA buffer, and suspended in 50 μl of the aforementioned 2× SDS sample loading buffer. The suspension was boiled for 10 min, cooled, and briefly centrifuged to remove the beads. Western blot analysis was performed with anti-cyclin D1 or anti-ubiquitin as described above.

For experiment [1], the system named is cyclins D2, D3, A, B, and E, and cyclin-dependent kinases (CDKs) 2 and 4. The experiment is described as follows: Western blot of other cyclins and CDKs in MCF-7 cells. Type of experiment: cell-based, human. Conditions: different doses, 24 h. As for the experimental part:
as §1, with “The transblotted membrane was blocking with TBST [Tris-buffered saline (TBS) containing 0.1% Tween 20] containing 5% nonfat milk for 90 min, and the membrane was incubated with the appropriate primary antibody in TBST-5% nonfat milk at 4° C. overnight. After washing three times with TBST for a total of 45 min, the transblotted membrane was incubated with goat anti-rabbit or anti-mouse IgG-horseradish peroxidase conjugates (diluted 1:1000) for 1 h at room temperature and washed four times with TBST for a total of 1 h. The immunoblots were visualized by enhanced chemiluminescence.” left out

Another experiment deals with cyclin D1 gene mRNA. Description: RT-PCR analysis of mRNA transcripts of cyclin D1 gene in MCF-7 cells. It counts as cell-based, human. Conditions: 24 h exposure, 40 μM TG, 30 μM Δ2-TG. As for the experimental part:
Reverse transcriptase (RT-) PCR analysis of mRNA transcripts of cyclin D1 gene. MCF7 cells were subject to total RNA isolation by using RNeasy mini kit (Qiagen, Valencia, Calif.). RNA concentrations and quality were assessed spectrophotometrically by measuring absorption at 260 nm. Aliquots of 20 μg of total RNA from each sample was reverse transcribed to cDNA using Omniscript RT Kit (Qiagen) according to manufacturer's instructions. The primers used were as follows: cyclin D1, forward, 5′-[…]-3′, reverse, 5′-[…]-3′; β-actin, forward, 5′-[…]-3′, reverse, 5′-[…]-3′. The reaction conditions were as follows: for cyclin D1 (a) initial denaturation at 95° C. for 5 min; (b) 34 cycles of amplification (95° C. for 1 min, 65° C. for 1 min 45 s, and 72° C. for 1 min); and (c) a final extension step of 10 min at 72° C.; for β-actin (a) initial denaturation at 95° C. for 3 min; (b) 40 cycles of amplification (95° C. for 30 s, 58° C. for 20 s, and 72° C. for 45 s); and (c) a final extension step of 10 min at 72° C.

Where [2] appears, read: MCF7, 24 h, 5% FBS, MTT, FIG. 8D, read-out: IC50 in inhibiting MCF-7 cell proliferation.
Setting [3] is: MCF7, cell viability data, read-out: IC50 for MTT.

Molecules are shown by their SMILES. Read-outs that look alike come from different tables or passages of the source.

As for `C=CCOc1c(C)c(C)c2c(c1C)CCC(C)(COc1ccc(/C=C3\SC(=O)NC3=O)cc1)O2` (stereo not shown) [TG-6, 5-[4-(6-allyoxy-2,5,7,8-tetramethyl-chroman-2-yl-methoxy)-benzylidene]-2,4-thiazolidinedione], the PPARγ activation entry at PPARγ is listed as “devoid of activity”. For the same compound, the IC50 with MCF-7 cells (setting [2]) came to 8 µM; in the experiment with MCF-7 cells (setting [3]) it was 9 µM; in the experiment on cyclin D1 (western blot data, read-out: IC50 for WB) it was 3 µM. Moreover, the “potency in ablating cyclin D1 relative to Δ2-TG” value with cyclin D1 is “an-order-of-magnitude higher”. Further, the “concentration at which cyclin D1 levels are reduced” value in the experiment on cyclin D1 is no less than 2.5 µM.

In the case of `CC1(COc2ccc(/C=C3\SC(=O)NC3=O)cc2)CCCCC1` [Δ2-CG, 5-[4-(1-methyl-cyclohexylmethoxy)-benzylidene]-thiazolidine-2,4-dione], the PPARγ activation result at PPARγ is “inactive”. Further, the IC50 with MCF-7 cells (setting [3]) came to 70 µM. Moreover, the “minimum concentration required for the complete ablation of cyclin D1” value with cyclin D1 was found to be 30 µM. The “effect on ERα expression” value in the experiment on ERα is “able to reduce”.

Turning to `Cc1c(C)c2c(c(C)c1O)CCC(C)(COc1ccc(/C=C3\SC(=O)NC3=O)cc1)O2` (stereo not shown) [Δ2-TG, 5-[4-(6-hydroxy-2,5,7,8-tetramethyl-chroman-2-yl-methoxy)-benzylidene]-2,4-thiazolidinedione], the GSK-3β phosphorylation level entry with GSK-3β is recorded as “remained unaltered”. At PPARγ, the PPARγ activation result is “inactive”. The “extent of ubiquitination of cyclin D1” value with ubiquitinated cyclin D1 is reported as “increased”. For the same compound, the IC50 with MCF-7 cells (setting [2]) was 55 µM. The IC50 in the experiment with MCF-7 cells (setting [3]) worked out at 57 µM. Besides, the “time of complete ablation of cyclin D1” value in the experiment with cyclin D1 (40 μM TG, 30 μM Δ2-TG) came to 24 h. In the experiment on cyclin D1, the “minimum concentration required for the complete ablation of cyclin D1” value was 30 µM and the “concentration at which cyclin D1 levels are reduced” value was no less than 20 µM. In experiment [1], the “expression level of cyclin D2 and CDK4” value was “slight decrease”; the “expression level of the other cyclins and CDKs (D3, A, B, E, CDK2)” value is on record as “no appreciable effect”. Further, the “effect on ERα expression” value in the experiment on ERα is given as “able to reduce”. Moreover, the “mRNA level of cyclin D1” value with cyclin D1 gene mRNA is on record as “remained unaltered”.
